The source of these data is patent US20060111341A1, “Use of galanthamine and the derivatives thereof in the production of medicaments” (priority 2003, published 2006).

Structures are written as SMILES. Like-named read-outs stand apart in the source and are kept apart here.

Usually IC50 stands for the midpoint of a concentration-inhibition curve. Read a high IC50 as weaker potency in that assay.

One data set addresses Butyrylcholinesterase (Homo sapiens, UniProt P06276). Kind of data set: biochemical.
Data set [1] has as its target T1, Acetylcholinesterase (Homo sapiens, UniProt P22303). The data set is described as follows: biochemical.
The target of data set [2] is T1, Acetylcholinesterase.
Another data set has as its system post-operative delirium. Kind of data set: Prospective clinical study for the prevention of post-operative delirium (Confusion Assessment Method). Type of data set: in vivo, patients. The source says: In order to be able to test the effect of the pharmaceutical forms of the invention on patients, a prospective study was accomplished for the prevention of post-operative delirium at five Austrian orthopedic hospitals (two in Vienna, and one each in Linz, Graz and Krems) and all together 229 patients, who underwent hip replacement and/or combined planned surgical intervention for implantation were part of the study.
Hip/Knee endoprosthesis. The patients of the group were given in the evening following the surgical intervention (day 0) 8 mg galanthamine HCl, then on the days 1 to 4 in each case 4 mg in the morning and at noon and 8 mg in the evening, i.e., 16 mg t.i.d. to the fifth day. […], the dose was reduced to 8 mg b.i.d., starting from that day until the 6th day when no more treatment took place.
For the determination of the effectiveness with the help of the “Confusion Assessment Method” (Lit.14) 155 patients could be consulted. In the group of placebos 7 patients (8, 5%) developed an post-operative delirium, in the galanthamine group only one patient (1, 4%) developed post-operative delirium, which corresponds to a statistically significant difference (p=0, 044).

In data set [3] the test system is medicament-induced delirium. The settings on record: one patient, WO 00/32185 A; cited from earlier work.

Butyrylcholinesterase, sequence (P06276 29-602): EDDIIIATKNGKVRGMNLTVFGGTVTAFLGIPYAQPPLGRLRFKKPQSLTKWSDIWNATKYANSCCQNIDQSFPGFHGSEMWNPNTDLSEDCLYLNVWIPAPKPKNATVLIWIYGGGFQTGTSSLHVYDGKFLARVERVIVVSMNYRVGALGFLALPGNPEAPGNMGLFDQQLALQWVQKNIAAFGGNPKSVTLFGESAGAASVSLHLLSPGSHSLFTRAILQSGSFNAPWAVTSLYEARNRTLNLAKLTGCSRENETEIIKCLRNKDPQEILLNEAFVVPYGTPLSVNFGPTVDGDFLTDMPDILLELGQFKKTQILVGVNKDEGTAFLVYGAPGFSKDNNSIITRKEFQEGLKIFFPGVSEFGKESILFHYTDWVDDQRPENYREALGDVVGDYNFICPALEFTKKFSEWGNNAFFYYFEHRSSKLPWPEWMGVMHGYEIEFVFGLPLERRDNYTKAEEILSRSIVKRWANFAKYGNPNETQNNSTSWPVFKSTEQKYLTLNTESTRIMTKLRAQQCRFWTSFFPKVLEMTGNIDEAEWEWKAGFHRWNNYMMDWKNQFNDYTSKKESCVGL
T1 sequence (P22303 32-614): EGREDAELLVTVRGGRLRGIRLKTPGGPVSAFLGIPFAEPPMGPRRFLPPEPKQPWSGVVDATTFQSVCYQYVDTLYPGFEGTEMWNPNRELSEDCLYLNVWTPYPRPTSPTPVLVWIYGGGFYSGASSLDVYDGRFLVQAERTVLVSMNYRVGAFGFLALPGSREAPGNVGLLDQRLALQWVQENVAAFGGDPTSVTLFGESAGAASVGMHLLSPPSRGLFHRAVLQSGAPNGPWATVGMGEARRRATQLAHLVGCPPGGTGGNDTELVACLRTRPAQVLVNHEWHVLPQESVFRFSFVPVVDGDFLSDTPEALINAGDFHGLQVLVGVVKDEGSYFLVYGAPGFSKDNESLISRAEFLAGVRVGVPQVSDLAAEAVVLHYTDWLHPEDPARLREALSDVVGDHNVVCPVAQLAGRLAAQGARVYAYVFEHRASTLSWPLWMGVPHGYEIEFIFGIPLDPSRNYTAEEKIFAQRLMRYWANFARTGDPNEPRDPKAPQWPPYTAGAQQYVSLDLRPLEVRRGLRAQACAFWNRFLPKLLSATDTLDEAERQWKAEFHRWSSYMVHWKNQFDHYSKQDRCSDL

Take `COc1ccc2c3c1O[C@H]1C[C@@H](O)C=C[C@@]31CCN(c1ccccc1)C2` [Nr 123]: the figures for the IC50 on Butyrylcholinesterase and against Acetylcholinesterase [1] were 0.24 µM and 0.5 µM, respectively.
On the same counts, the results for `COc1ccc2c3c1O[C@H]1C[C@@H](O)C=C[C@@]31CCN(c1cccs1)C2` [Nr 124] are 0.54 µM and 4 µM.
Turning to `COc1ccc2c3c1O[C@@H]1C[C@H](O)C=C[C@]31CCN(C(=O)NC(C)C)C2` [Nr 126], the IC50 was determined as 90 µM against Butyrylcholinesterase and 8 µM against Acetylcholinesterase [1].
In the case of `COc1ccc2c3c1O[C@H]1C[C@@H](O)C=C[C@@]31CC[N+](C)=C2` [Nr 127], the IC50 against Butyrylcholinesterase was 1.5 µM; against Acetylcholinesterase [1], 0.3 µM.
On the same counts, the results for `COc1ccc2c3c1O[C@H]1C[C@@H](O)C=C[C@@]31CCN(CCCN1CCCCC1)C2` [Nr 128] are 1.5 µM and 0.3 µM.
On the same counts, the results for `CNC(=S)N1CC[C@@]23C=C[C@H](O)C[C@@H]2Oc2c(OC)ccc(c23)C1` [Nr 129] are 63 µM and 18.5 µM.
Take `CC(C)NC(=O)N1CC[C@@]23C=C[C@H](O)C[C@@H]2Oc2c(O)ccc(c23)C1` [Nr 130]: the IC50 against Butyrylcholinesterase is 60 µM; at Acetylcholinesterase [1] it was 6.3 µM.
On the same counts, the results for `COc1ccc2c3c1O[C@H]1C[C@@H](O)C=C[C@@]31CCN(CC1CC1)C2` [Nr 131] are 1.2 µM and 0.7 µM.
For `COc1ccc2c3c1O[C@H]1C[C@@H](O)C=C[C@@]31CCN(C)C2C#N` (some centres unmarked) [Nr 133], in that order: greater than 100 µM and 0.8 µM.
On the same counts, the results for `COc1ccc2c3c1O[C@H]1C[C@@H](O)C=C[C@@]31CCN(C)C2C` (some centres unmarked) [Nr 135] are 25 µM and 4.2 µM.
With `COc1ccc2c3c1O[C@H]1C[C@@H](O)C=C[C@@]31CCN(C(=O)Oc1ccccc1)C2` [Nr 137], the 50% inhibitory concentration (IC50) is greater than 100 µM against Butyrylcholinesterase and 46 µM against Acetylcholinesterase [1].
On the same counts, the results for `COc1cc(C)c2c3c1O[C@H]1C[C@H](O)C=C[C@@]31CCN(CCCN1CCCCC1)C2` [Nr 138] are 70 µM and greater than 100 µM.
For `COc1ccc2c3c1O[C@H]1C[C@@H](O)C=C[C@@]31CCN(C(=O)OC(C)(C)C)C2` [Nr 139], in that order: greater than 100 µM and 23 µM.
On the same counts, the results for `COc1ccc2c3c1O[C@H]1C[C@@H](O)C=C[C@@]31CCN(CCN)C2` [Nr 141] are 2.1 µM and 1.3 µM.
`COc1ccc2c3c1O[C@H]1C[C@@H](O)C=C[C@@]31CCN(CCCN1CC3CC1CN3c1ccc(F)cc1)C2` (some centres unmarked) [Nr 142]: the IC50 against Butyrylcholinesterase amounted to 2.4 µM; against Acetylcholinesterase [1] it was 3 µM.
On to `COc1ccc2c3c1O[C@H]1C[C@@H](O)C=C[C@@]31CCN(CC(=O)N1CC3CC1CN3c1ccccc1)C2` (some centres unmarked) [Nr 143], for which the IC50 stood at 2.4 µM against Butyrylcholinesterase and 8.4 µM against Acetylcholinesterase [1].
Take `COc1ccc2c3c1O[C@H]1C[C@@H](O)C=C[C@@]31CCN(CCCO)C2` [Nr 144]: the IC50 amounted to 5 µM against Butyrylcholinesterase and 2.8 µM against Acetylcholinesterase [1].
For `C=CCCC(=O)N1CC[C@@]23C=C[C@H](O)C[C@@H]2Oc2c(OC)ccc(c23)C1` [Nr 147], the results for the IC50 on Butyrylcholinesterase and against Acetylcholinesterase [1] were 2.6 µM and 8.4 µM, respectively.
On the same counts, the results for `COc1ccc2c3c1O[C@H]1C[C@@H](O)C=C[C@@]31CCN(C1CCN(C(=O)c3ccccc3)CC1)C2` [Nr 148] are 3 µM and 24 µM.
On the same counts, the results for `COc1ccc2c3c1O[C@H]1C[C@@H](O)C=C[C@@]31CCN(C(=S)Oc1ccccc1)C2` [Nr 149] are greater than 100 µM and 7.2 µM.
`COc1ccc2c3c1O[C@@H]1C[C@H](O)C=C[C@]31CCN(CCCN1CCCCC1)C2` [Nr 153]: the IC50 on Butyrylcholinesterase worked out at 23 µM; at Acetylcholinesterase [1], 9 µM.
Consider `COc1cc2c(cc1OC)C(=O)C(CCCCN1CC[C@@]34C=C[C@H](O)C[C@@H]3Oc3c(OC)ccc(c34)C1)C2` (some centres unmarked) [Nr 154], for which the IC50 on Butyrylcholinesterase turned out to be 0.8 µM; against Acetylcholinesterase [1], 0.02 µM.
For `CCCN1CC[C@@]23C=C[C@H](O)C[C@@H]2Oc2c(OC)ccc(c23)C1` [Nr 155], in that order: 1.5 µM and 0.3 µM.
For `COc1ccc2c(c1)CC(CCCCN1CC[C@@]34C=C[C@H](O)C[C@@H]3Oc3c(OC)ccc(c34)C1)C2=O` (some centres unmarked) [Nr 157], in that order: 0.8 µM and 0.022 µM.
In the case of `COc1cc2c(cc1OC)C(=O)C(CCCCCN1CC[C@@]34C=C[C@H](O)C[C@@H]3Oc3c(OC)ccc(c34)C1)C2` (some centres unmarked) [Nr 158], the IC50 came out at 0.24 µM on Butyrylcholinesterase and 0.0052 µM against Acetylcholinesterase [1].
On the same counts, the results for `CCOC(=O)NN(CN1CC[C@@]23C=C[C@H](O)C[C@@H]2Oc2c(OC)ccc(c23)C1)C(=O)OCC` [Nr 159] are greater than 100 µM and 3 µM.
On the same counts, the results for `COc1ccc2c3c1O[C@H]1C[C@@H](O)C=C[C@@]31CCN(CN(NC(=O)OC(C)(C)C)C(=O)OC(C)(C)C)C2` [Nr 160] are 20 µM and 3.6 µM.
In the case of `COc1ccc2c3c1O[C@H]1C[C@@H](O)C=C[C@@]31CCN(CCCCN1C(=O)c3ccccc3S1(=O)=O)C2` [Nr 161], the IC50 against Butyrylcholinesterase was 1.5 µM; against Acetylcholinesterase [1] it was 0.022 µM.
As to `COc1cc2c(cc1OC)C(=O)C(CCCCN1CC[C@@]34C=C[C@H](O)C[C@@H]3Oc3c(OC)ccc(c34)C1)C2` (some centres unmarked) [Nr 167], the IC50 against Acetylcholinesterase [2] is 0.02 µM. That is a double-digit nanomolar value.
As for `COc1ccc2c3c1O[C@H]1C[C@@H](OC(=S)Nc4ccccc4)C=C[C@@]31CCN(C)C2` [Nr 179], the IC50 against Butyrylcholinesterase turned out to be 30 µM; against Acetylcholinesterase [1] it was 51 µM.
Turning to `COc1ccc2c3c1O[C@H]1C[C@@H](O)C=C[C@@]31CCN(C(=O)Nc1cccc3ccccc13)C2` [Nr 267], the figures for the IC50 at Butyrylcholinesterase and against Acetylcholinesterase [1] were greater than 100 µM and 70 µM, respectively.
Take `COc1cc(Br)c2c3c1O[C@@H]1C[C@H](O)C=C[C@]31CCN(C(=O)CCN1CCCC1)C2` [Nr 271]: the figures for the IC50 against Butyrylcholinesterase and at Acetylcholinesterase [1] were 66 µM and greater than 100 µM, respectively.
As to `COc1ccc2c3c1O[C@H]1C[C@@H](O)C=C[C@@]31CCN(C)C2` [galanthamine], the “patients who developed post-operative delirium (number)” value in the data set with post-operative delirium (hip/knee endoprosthesis patients, oral galanthamine day 0 to 5, Confusion Assessment Method, 155 patients evaluated, placebo 7 patients) is “one”. Also, the “improvement of the symptoms of acute POD” value with post-operative delirium (oral administration, patients with limited cognitive ability with acute POD) is “unexpected and large improvement of the symptoms”. Moreover, in the data set on post-operative delirium (oral administration, post-operative patients), the “observed side effects of galanthamine administration” value is recorded as “very small”. For the same compound, in the data set with post-operative delirium (po, 0 h), the “patients who developed post-operative delirium (percent)” value is reported as 1, 4%.
Turning to `CCN(C)C(=O)Oc1cccc([C@H](C)N(C)C)c1` [rivastigmine], the “treatment of delirium after lithium intoxication” value in data set [3] was “successfully treated”.
